Source: PMC3049140, “Mechanism of acetaldehyde-induced deactivation of microbial lipases” (BMC Biochemistry, 2011)

Assays:
Format in all cases: biochemical
[1] = target: T1, BSL-B (Bacillus subtilis lipase B) (Bacillus subtilis, UniProt Q79F14); assay: residual hydrolytic activity, p-nitrophenylpalmitate assay; details: read-out: residual activity at 50 mM
T1 construct: gene estB
T1 sequence (Q79F14 29-210): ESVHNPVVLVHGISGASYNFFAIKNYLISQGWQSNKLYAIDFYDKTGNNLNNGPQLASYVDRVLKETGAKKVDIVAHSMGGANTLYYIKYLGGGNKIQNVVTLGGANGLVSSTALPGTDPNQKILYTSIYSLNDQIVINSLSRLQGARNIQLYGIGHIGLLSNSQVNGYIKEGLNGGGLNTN

[2] = target: T1, BSL-B (Bacillus subtilis lipase B); assay: p-nitrophenylpalmitate hydrolysis assay
[3] = target: T2, BSL-A (Bacillus subtilis lipase A) (Bacillus subtilis, UniProt P37957); assay: p-nitrophenylpalmitate hydrolysis assay
T2 construct: gene estA
T2 sequence (P37957 32-212): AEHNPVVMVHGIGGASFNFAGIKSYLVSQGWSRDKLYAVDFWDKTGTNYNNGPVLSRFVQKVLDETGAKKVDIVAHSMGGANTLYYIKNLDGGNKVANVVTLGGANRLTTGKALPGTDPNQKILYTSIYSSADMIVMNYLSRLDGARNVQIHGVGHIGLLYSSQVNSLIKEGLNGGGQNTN

With `CC=CC=CC=O` [2,4-hexadienal] as the molecule, how does the remaining activity at 50000 µM [1] read?
The remaining activity at 50000 µM was 19%.

For `CCCCCCCCCCCCCCCC(=O)Oc1ccc([N+](=O)[O-])cc1` [pNPP, p-nitrophenylpalmitate], which p-nitrophenylpalmitate hydrolysis assay [2] is on record?
Its p-nitrophenylpalmitate hydrolysis assay is “residual enzyme activity determined with p-nitrophenylpalmitate as the substrate”.

What about the p-nitrophenylpalmitate hydrolysis assay [3] of the same molecule?
The p-nitrophenylpalmitate hydrolysis assay was “assayed for residual activity using the p-nitrophenylpalmitate assay”.
